Earlier results as cited in publication PMC9377007, “An Unexpected Deuterium-Induced Metabolic Switch in Doxophylline” (ACS Medicinal Chemistry Letters, 2022).

How the values were obtained:
[1] = system: antibronchospastic and antiasthmatic effects; design: method as in PMID 1652045; conditions: ref [31]; cited from earlier work
PDE-III and IV isozymes = system: PDE-III and IV isozymes; design: method as in PMID 1328102; conditions: ref [30]; cited from earlier work

Cn1c(=O)c2c(ncn2CCO)n(C)c1=O [etophylline, 7-hydroxyethyltheophylline]
antibronchospastic and antiasthmatic effects relative to doxophylline [1]: significantly less active than doxophylline

Cn1c(=O)c2c(ncn2CC(=O)O)n(C)c1=O [T-COOH, 7-theophylline acetic acid]
inhibition of PDE-III and IV isozymes (PDE-III and IV isozymes): specific inhibition
